The values below come from patent US10894777B2, “TG2 inhibitor piperazine compounds and uses thereof” (UNIVERSITY OF OTTAWA, priority 2016, dated 2021).

Each structure is given as a SMILES string.

The target of one assay is hTG1 (Homo sapiens, UniProt P22735). Put plainly: Colorimetric transamidase activity assay (AL5 substrate), hTG1. It is filed as biochemical. To be noted: Table 9; Kitz and Wilson conditions. How it is done: Selectivity of certain irreversible inhibitors over other members of the transglutaminase family was assessed. […] Inhibitors were tested using a continuous colorimetric assay (Leblanc, A. et al., Biochemistry (2001), 40 (28): 8335-8342) for hTG1 and hTG6 and a commercially available continuous fluorescent assay that utilizes a peptidic FRET quenched substrate (Oertel, K. et al., Anal. Biochem. (2007), 367 (2): 152-158; Király, R. et al., Amino Acids (2016), 48 (1): 31-40) for the other transglutaminases, FXIIIa and hTG3. The rate constant of enzyme inactivation (kobs) for a specific concentration of inhibitor was obtained using Kitz and Wilson conditions (Kitz, R. et al., J. Biol. Chem. (1962), 237: 3245-49). Inhibitor concentrations were adjusted to account for competition with substrates in each enzymatic reaction.
hTG1, sequence (P22735 whole entry): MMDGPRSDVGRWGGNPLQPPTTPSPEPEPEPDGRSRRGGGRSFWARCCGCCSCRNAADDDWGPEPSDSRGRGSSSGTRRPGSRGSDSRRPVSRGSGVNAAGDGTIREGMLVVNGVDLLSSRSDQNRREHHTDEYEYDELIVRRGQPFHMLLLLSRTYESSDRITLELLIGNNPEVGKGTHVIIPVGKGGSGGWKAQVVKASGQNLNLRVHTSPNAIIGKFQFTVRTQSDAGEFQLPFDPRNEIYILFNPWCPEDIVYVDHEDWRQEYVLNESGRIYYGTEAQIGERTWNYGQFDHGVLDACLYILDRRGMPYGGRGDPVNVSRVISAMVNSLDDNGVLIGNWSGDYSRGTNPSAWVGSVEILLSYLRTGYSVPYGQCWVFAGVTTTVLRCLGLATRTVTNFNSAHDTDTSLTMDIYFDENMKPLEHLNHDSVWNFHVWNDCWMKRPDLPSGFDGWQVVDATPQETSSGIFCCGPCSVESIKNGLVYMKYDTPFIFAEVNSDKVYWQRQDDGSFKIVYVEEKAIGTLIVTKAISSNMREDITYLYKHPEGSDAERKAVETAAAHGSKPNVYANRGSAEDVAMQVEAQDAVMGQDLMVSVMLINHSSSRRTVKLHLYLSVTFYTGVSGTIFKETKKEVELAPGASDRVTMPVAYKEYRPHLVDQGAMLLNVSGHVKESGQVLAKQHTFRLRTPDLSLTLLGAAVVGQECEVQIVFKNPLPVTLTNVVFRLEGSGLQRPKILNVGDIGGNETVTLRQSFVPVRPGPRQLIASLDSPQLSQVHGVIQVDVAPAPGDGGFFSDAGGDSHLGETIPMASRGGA
In Vitro Assays. Colorimetric transamidase activity assay.

Another assay deals with A431 cells. Put plainly: Migration (scratch wound closure) assay, A431 cells. The format is cell-based, human. Conditions: 20 μM. The protocol: In (A), it is shown that A431-derived ECS cells have elevated TG2 and mesenchymal markers. A431 cells (40,000 cells/well) were grown in spheroid media in monolayer conditions or as non-attached spheroids (ECS cells) for 10 d. Cells were harvested and lysates prepared for immunoblot. In (B), A431 cells were electroporated with 3 μg of control- or TG2-siRNA and at 72 h extracts were prepared to assay TG2 and EMT marker level. In (C), A431-derived ECS cells were electroporated with 3 μg of the indicated siRNA and then grown as spheroids for 96 h. […] In (D), A431 cells (500,000 cells/well) were plated in monolayer culture in spheroid media in 100 mm dishes. […] Confluent monolayers were then scratched with a 10-μL pipette tip, rinsed, and width of the wound was monitored for 0-14 h.
In (A), A431 cells were grown as monolayers or in ultralow attachment plates (spheroids) in spheroid medium. […] Spheroid number was counted on days 1, 2 and 3. […] Spheroid number and trypan-blue viable cell number were determined at the indicated times following NC9 addition. […] A wound was created and ability of the cells to close the wound was monitored with time. […]
Migration assay. […] Images were collected, at 0-18 h after the scratch using the 10× objective, and the width of the opening was measured as a function of time as an index of cell migration potential.

`C=CC(=O)NCCCC[C@H](NC(=O)OCc1ccccc1)C(=O)NCCOCCOCCNS(=O)(=O)c1cccc2c(N(C)C)cccc12` [NC9]: on hTG1, the “kobs (10^−3 min^−1), TG1” value is recorded as 78.9 ± 5.9 10^−3 min^−1. The “cell migration / scratch wound closure” value in the assay on A431 cells is “reduced cell migration”.
